# Test results as given in patent EP4603105A1, “PHARMACEUTICAL COMPOSITION CONTAINING CYCLIC COMPOUND HAVING SELECTIVE KRAS INHIBITORY EFFECT AGAINST HRAS AND NRAS” (CHUGAI SEIYAKU KABUSHIKI KAISHA, priority 2022, dated 2024).
# Legend:
# [1] = target: GDP-bound NRAS wild-type protein (Homo sapiens, UniProt P01111); assay: Binding to NRAS by surface plasmon resonance (SPR), KD and KD ratio to KRAS; conditions: ratio of KD for GDP-bound NRAS wild-type protein to KD for KRAS
# Summary of the method: (§1)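 GDP-loaded biotinylated Avi-tag RAS proteins (E. coli-expressed) captured on a Biotin CAPture chip at ~100–300 RU; single-cycle kinetics at 30°C, 100 µL/min, 75 s injections of rising compound concentrations. HBS pH 7.4 running buffer with 1 mM DTT, 10 mM MgCl2, 10 µM GDP, 4% DMSO. KD from 1:1 binding fit.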
# HRAS wild-type protein = HRAS wild-type protein (Homo sapiens, UniProt P01112); assay: Binding to HRAS by surface plasmon resonance (SPR), KD and KD ratio to KRAS; conditions: ratio of KD for HRAS wild-type protein to KD for KRAS
# Summary of the method: as §1
# [2] = tested on: human lung cancer strain NCI-H441; type: cell-based
# Summary of the method: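 Readout: […] after the ATP-based reagent. Compound: serial dilutions in dimethyl sulfoxide.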
# HRAS wild-type protein, sequence (P01112 whole entry): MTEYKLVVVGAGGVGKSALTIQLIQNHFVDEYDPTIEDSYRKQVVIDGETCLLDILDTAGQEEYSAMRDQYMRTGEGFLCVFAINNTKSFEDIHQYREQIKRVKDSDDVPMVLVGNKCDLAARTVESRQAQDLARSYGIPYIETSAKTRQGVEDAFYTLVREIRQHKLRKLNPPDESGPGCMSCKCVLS
# GDP-bound NRAS wild-type protein, sequence (P01111 whole entry): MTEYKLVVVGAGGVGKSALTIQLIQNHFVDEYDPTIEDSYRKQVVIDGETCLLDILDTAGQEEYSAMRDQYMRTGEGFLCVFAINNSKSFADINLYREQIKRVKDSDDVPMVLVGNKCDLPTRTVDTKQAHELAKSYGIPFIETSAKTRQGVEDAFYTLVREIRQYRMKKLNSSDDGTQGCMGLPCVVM
Compound,NRAS /KRAS [1],HRAS /KRAS (HRAS wild-type protein),IC50 [2]
CCCC[C@H]1C(=O)N[C@@H]([C@@H](C)CC)C(=O)N(C)CC(=O)N(C)[C@H]2C/C=C\CCN(C2=O)[C@@H](Cc2ccc(C)cc2)C(=O)N(C)CC(=O)N[C@@H](CCc2cc(F)c(C(F)(F)F)c(F)c2)C(=O)N2C[C@H](OCC)C[C@H]2C(=O)NC2(CCC2)C(=O)N(C)[C@@H](C2CCCC2)C(=O)N(C)[C@H](C(=O)N(C)C)CC(=O)N1C [PP2798],A (a compound having 10 or more and less than 20 is denoted as A),A (a compound having 10 or more and less than 20 is denoted as A),8.5 nM
CCC[C@H]1C(=O)N[C@@H]([C@@H](C)CC)C(=O)N(C2CC2)CC(=O)N(C)[C@H]2C/C=C\CCN(C2=O)[C@@H](Cc2ccc(C)cc2)C(=O)N(C)CC(=O)N[C@@H](CCc2ccc(C(F)(F)F)c(OC)c2)C(=O)N2C[C@H](OCC)C[C@H]2C(=O)NC2(CC(C)(C)C2)C(=O)N(C)[C@@H](CC2CC2)C(=O)N(C)[C@H](C(=O)N(C)C)CC(=O)N1C [PP2803],A (a compound having 10 or more and less than 20 is denoted as A),A (a compound having 10 or more and less than 20 is denoted as A),120 nM
CC[C@H](C)[C@@H]1NC(=O)[C@H](CC2CC2)N(C)C(=O)C[C@@H](C(=O)N(C)C)N(C)C(=O)[C@H](C2CCCC2)N(C)C(=O)C2(CC(C)(C)C2)NC(=O)[C@@H]2C[C@@H](F)CN2C(=O)[C@H](CCc2cc(F)c(C(F)(F)F)c(F)c2)NC(=O)CN(C)C(=O)[C@H](Cc2ccc(C)cc2)N2CC/C=C\C[C@@H](C2=O)N(C)C(=O)CN(C)C1=O [PP2804],A (a compound having 10 or more and less than 20 is denoted as A),A (a compound having 10 or more and less than 20 is denoted as A),2.2 nM
CCCC[C@H]1C(=O)N[C@@H]([C@@H](C)CC)C(=O)N(C)CC(=O)N(C)[C@H]2C/C=C\CCN(C2=O)[C@@H](Cc2ccc(C(F)(F)F)cc2)C(=O)N(C)CC(=O)N[C@@H](CCc2cc(F)c(C(F)(F)F)c(F)c2)C(=O)N2C[C@H](OCC)C[C@H]2C(=O)NC2(CC(C)(C)C2)C(=O)N(C)[C@@H](C2CCCC2)C(=O)N(C)[C@H](C(=O)N(C)CC)CC(=O)N1C [PP2806],A (a compound having 10 or more and less than 20 is denoted as A),A (a compound having 10 or more and less than 20 is denoted as A),11.3 nM
CCC[C@H]1C(=O)N[C@@H]([C@@H](C)CC)C(=O)N(C)CC(=O)N(C)[C@H]2C/C=C\CCN(C2=O)[C@@H](Cc2ccc(C(F)(F)F)cc2)C(=O)N(C)CC(=O)N[C@@H](CCc2cc(F)c(C(F)(F)F)c(F)c2)C(=O)N2C[C@H](OCC)C[C@H]2C(=O)NC2(CC(C)(C)C2)C(=O)N(C)[C@@H](CC2CC2)C(=O)N(C)[C@H](C(=O)N(C)C)CC(=O)N1C [PP2807],AA (a compound having 20 or more is denoted as AA),A (a compound having 10 or more and less than 20 is denoted as A),28 nM
CCCC[C@H]1C(=O)N[C@@H]([C@@H](C)CC)C(=O)N(C)CC(=O)N(C)[C@H]2C/C=C\CCN(C2=O)[C@@H](Cc2ccc(C)cc2)C(=O)N(C)CC(=O)N[C@@H](CCc2cc(F)c(C(F)(F)F)c(F)c2)C(=O)N2C[C@H](OCC)C[C@H]2C(=O)NC2(CC(C)(C)C2)C(=O)N(C)[C@@H](C2CCCC2)C(=O)N(C)[C@H](C(=O)N(C)CC)CC(=O)N1C [PP2808],B (a compound having 3 or more and less than 10 is denoted as B),B (a compound having 3 or more and less than 10 is denoted as B),13.1 nM
CCC[C@H]1C(=O)N[C@@H]([C@@H](C)CC)C(=O)N(C)CC(=O)N(C)[C@H]2C/C=C\CCN(C2=O)[C@@H](Cc2ccc(C(F)(F)F)cc2)C(=O)N(C)CC(=O)N[C@@H](CCc2ccc(C(F)(F)F)c(OC)c2)C(=O)N2C[C@H](OCC)C[C@H]2C(=O)NC2(CC(C)(C)C2)C(=O)N(C)[C@@H](CC2CC2)C(=O)N(C)[C@H](C(=O)N(C)C)CC(=O)N1C [PP2809],A (a compound having 10 or more and less than 20 is denoted as A),A (a compound having 10 or more and less than 20 is denoted as A),76.6 nM
CCC[C@H]1C(=O)N[C@@H]([C@@H](C)CC)C(=O)N(C)CC(=O)N(C)[C@H]2C/C=C\CCN(C2=O)[C@@H](Cc2ccc(C(F)(F)F)cc2)C(=O)N(C)CC(=O)N[C@@H](CCc2ccc(Cl)c(Cl)c2)C(=O)N2C[C@H](OCC)C[C@H]2C(=O)NC2(CC(C)(C)C2)C(=O)N(C)[C@@H](CC2CC2)C(=O)N(C)[C@H](C(=O)N(C)C)CC(=O)N1C [PP2811],A (a compound having 10 or more and less than 20 is denoted as A),A (a compound having 10 or more and less than 20 is denoted as A),100 nM
CCC[C@H]1C(=O)N[C@@H]([C@@H](C)CC)C(=O)N(C2CC2)CC(=O)N(C)[C@H]2C/C=C\CCN(C2=O)[C@@H](Cc2ccc(C(F)(F)F)cc2)C(=O)N(C)CC(=O)N[C@@H](CCc2cc(F)c(C(F)(F)F)c(F)c2)C(=O)N2C[C@H](OCC)C[C@H]2C(=O)NC2(CC(C)(C)C2)C(=O)N(C)[C@@H](CC2CC2)C(=O)N(C)[C@H](C(=O)N(C)C)CC(=O)N1C [PP2813],AA (a compound having 20 or more is denoted as AA),A (a compound having 10 or more and less than 20 is denoted as A),86 nM
CCC[C@H]1C(=O)N[C@@H]([C@@H](C)CC)C(=O)N(C2CC2)CC(=O)N(C)[C@H]2C/C=C\CCN(C2=O)[C@@H](Cc2ccc(C(F)(F)F)cc2)C(=O)N(C)CC(=O)N[C@@H](CCc2ccc(C(F)(F)F)c(OC)c2)C(=O)N2C[C@H](OCC)C[C@H]2C(=O)NC2(CC(C)(C)C2)C(=O)N(C)[C@@H](CC2CC2)C(=O)N(C)[C@H](C(=O)N(C)C)CC(=O)N1C [PP2815],A (a compound having 10 or more and less than 20 is denoted as A),A (a compound having 10 or more and less than 20 is denoted as A),188 nM
CCC[C@H]1C(=O)N[C@@H]([C@@H](C)CC)C(=O)N(C2CC2)CC(=O)N(C)[C@H]2C/C=C\CCN(C2=O)[C@@H](Cc2ccc(C(F)(F)F)cc2)C(=O)N(C)CC(=O)N[C@@H](CCc2ccc(Cl)c(Cl)c2)C(=O)N2C[C@H](OCC)C[C@H]2C(=O)NC2(CC(C)(C)C2)C(=O)N(C)[C@@H](CC2CC2)C(=O)N(C)[C@H](C(=O)N(C)C)CC(=O)N1C [PP2817],A (a compound having 10 or more and less than 20 is denoted as A),A (a compound having 10 or more and less than 20 is denoted as A),55.2 nM
CCC(CC)[C@H]1C(=O)N(C)[C@H](C(=O)N(C)C)CC(=O)N(C)[C@@H](COC)C(=O)N[C@@H]([C@@H](C)CC)C(=O)N(C)CC(=O)N(C)[C@H]2C/C=C\CCN(C2=O)[C@@H](Cc2ccc(C)cc2)C(=O)N(C)CC(=O)N[C@@H](CCc2ccc(Cl)c(Cl)c2)C(=O)N2C[C@H](OC3CCCC3)C[C@H]2C(=O)N(C)C2(CC(C)(C)C2)C(=O)N1C [PP2818],A (a compound having 10 or more and less than 20 is denoted as A),A (a compound having 10 or more and less than 20 is denoted as A),77.1 nM
CCC[C@H]1C(=O)N[C@@H]([C@@H](C)CC)C(=O)N(C2CC2)CC(=O)N(C)[C@H]2C/C=C\CCN(C2=O)[C@@H](Cc2ccc(C(F)(F)F)cc2)C(=O)N(C)CC(=O)N[C@@H](CCc2ccc(Cl)c(Cl)c2)C(=O)N2C[C@H](OCC)C[C@H]2C(=O)NC2(CC(C)(C)C2)C(=O)N(C)[C@@H](CC2CCC2)C(=O)N(C)[C@H](C(=O)N(C)C)CC(=O)N1C [PP2819],A (a compound having 10 or more and less than 20 is denoted as A),A (a compound having 10 or more and less than 20 is denoted as A),102 nM
CCO[C@@H]1C[C@H]2C(=O)NC3(CC(C)(C)C3)C(=O)N(C)[C@@H](CC3CCC3)C(=O)N(C)[C@H](C(=O)N(C)C)CC(=O)N(C)[C@@H](COC)C(=O)N[C@@H]([C@@H](C)CC)C(=O)N(C3CC3)CC(=O)N(C)[C@H]3C/C=C\CCN(C3=O)[C@@H](Cc3ccc(C(F)(F)F)cc3)C(=O)N(C)CC(=O)N[C@@H](CCc3ccc(Cl)c(Cl)c3)C(=O)N2C1 [PP2821],A (a compound having 10 or more and less than 20 is denoted as A),A (a compound having 10 or more and less than 20 is denoted as A),90.4 nM
CCO[C@@H]1C[C@H]2C(=O)NC3(CC(C)(C)C3)C(=O)N(C)[C@@H](C3CCCC3)C(=O)N(C)[C@H](C(=O)N(C)CC)CC(=O)N(C)[C@@H](CC)C(=O)N[C@@H]([C@@H](C)CC)C(=O)N(C)CC(=O)N(C)[C@H]3C/C=C\CCN(C3=O)[C@@H](Cc3ccc(C(F)(F)F)cc3)C(=O)N(C)CC(=O)N[C@@H](CCc3ccc(Cl)c(Cl)c3)C(=O)N2C1 [PP2822],A (a compound having 10 or more and less than 20 is denoted as A),A (a compound having 10 or more and less than 20 is denoted as A),14.1 nM
CCO[C@@H]1C[C@H]2C(=O)NC3(CC(C)(C)C3)C(=O)N(C)[C@@H](C3CCCC3)C(=O)N(C)[C@H](C(=O)N(C)CC)CC(=O)N(C)[C@@H](CC)C(=O)N[C@@H]([C@@H](C)CC)C(=O)N(C)CC(=O)N(C)[C@H]3C/C=C\CCN(C3=O)[C@@H](Cc3ccc(C(F)(F)F)cc3)C(=O)N(C)CC(=O)N[C@@H](CCc3ccc(C(F)(F)F)c(Cl)c3)C(=O)N2C1 [PP2823],A (a compound having 10 or more and less than 20 is denoted as A),A (a compound having 10 or more and less than 20 is denoted as A),7.6 nM
